*: point of attachment. NHNH2 = NN*

What all share (assay type): cell-based
The test system of experiment [1] is Hela cells expressing EGFP. Description: Cas9-RNP delivery against EGFP (gene editing, plate reader), HeLa. As to conditions: for % GFP silencing due to gene editing (Cas9-RNP): HeLa. The procedure: (§1) To generate an EGFP expressing HeLa cell line, HeLa cells were transfected with EGFP pDNA (pEGFP-C1, Clontech) and stable transfectants were selected with 400 μg/mL of G-418 (Millipore). Green clones were selected by epifluorescence microscopy and tested for EGFP expression stability through several passages. […] All other EGFP-expressing cell lines were obtained in a similar way from parent non-EGFP-expressing cell lines.
(§2) Cells expressing EGFP were seeded in a 96 well plate the day before the experiment at a concentration of 50,000 cell/mL (100 μL/w) in DMEM+10% FBS+1% Gln-Abt. For robotic library screening, the delivery of Cas9-RNP against EGFP (RNP designed to knock-out the gene encoding for the enhanced green fluorescent protein (EGFP)) was performed. For RNP assembly, 9.2 μL of crRNA and 9.2 μL of tracrRNA were mixed in 211.6 μL of Nuclease-Free Duplex Buffer (IDT), incubated for 5 min at 95° C. and slowly cooled at rt (see I. Lostalé-Seijo, et al. Peptide/Cas9 nanostructures for ribonucleoprotein cell membrane transport and gene edition, Chem. Sci., 2017). Cas9 protein was dissolved in DMEM at a final concentration of 4 μM and equal volumes of the RNA complex and Cas9 were mixed and incubated for 5 min at rt. 75 μL of the corresponding amphiphile concentrations were added to 5 μL of RNP at 2 μM. The mixture was shaken for 30 min at room temperature before the addition to the cells. The cell medium was aspirated, and cells were washed twice with PBS. Cells were covered with 30 μL of DMEM and 20 μL of the RNP/amphiphile complexes were added to the cells (final peptide concentrations=2.5, 5 and 10 μM; final Cas9-RNP concentration=50 nM) and incubated for 4 h. After the incubation, the medium was replaced by 100 μL of fresh DMEM supplemented with 10% FBS. The total EGFP fluorescence was quantified after 72 h in a plate reader (FIG. 2, Table 1 (right) and Table 6). All experiments were done in triplicate.
Tables 1-7: RLuc (pDNA) or EGFP (mRNA) expression levels were normalized to Lipofectamine reagents (value=1) and expressed as fold-times signal increase. In the case of siRNA, the siRNA treated cells fluorescence was compared with siMOCK control fluorescence, while Cas9-RNP mediated knockout was measured against the fluorescence of untreated cells. In both siRNA and Cas9-RNP, values are expressed as % fluorescence reduction. Amphiphile concentration was 5 μM in all cases. All experiments were performed in triplicate.
(§3) Tables 26-31 show the mean (triplicates) percentage of gene editing, accounted by GFP fluorescence intensity decrease (% of reduction), measured after the transfection of Cas9-RNP by different amphiphiles at different concentrations in a variety of cell lines. Background values, accounted by untreated control cells, were subtracted for processing.

Experiment [2] relates to ARPE19 cells expressing EGFP. Nature of the experiment: Cas9-RNP delivery against EGFP (gene editing, plate reader), ARPE19. The procedure:
as §1
as §2, with “triplicate. […]” for “triplicate.”
as §3

Experiment [3] deals with HCT116 cells expressing EGFP. Description: Cas9-RNP delivery against EGFP (gene editing, plate reader), HCT116. The procedure: as §1
as §2, with “triplicate. […]” for “triplicate.”
as §3

Where [4] appears, read: Petroselinyl, 10 μM, Hela cells.
[5] abbreviates: Petroselinyl, 15 μM, Hela cells.

With “Ac-RK*LRK*K*L-NH2 (Ac-RK(NHNH2)LRK(NHNH2)K(NHNH2)L-NH2; not fully specified; printed as Ac-RK*LRK*K*L-NH2; also: K*2,K*5,K*6: native or modified lysine (ε-amide to a linker)) [Peptide 7.3]”, the “percentage of gene editing, GFP fluorescence intensity decrease (% of reduction)” value in experiment [1] (Dodecanal, 5 μM, Hela cells) was 10%; in experiment [1] (Dodecanal, 10 μM, HeLa cells), 2%; in experiment [1] (Dodecanal, 15 μM, Hela cells), −3%; in experiment [1] (Myristoleyl, 5 μM, HeLa cells), 24%; in experiment [1] (Myristoleyl, 10 μM, HeLa cells), 27%; in experiment [1] (Myristoleyl, 15 μM, Hela cells), 25%. The “percentage of gene editing, GFP fluorescence intensity decrease (% of reduction)” value in experiment [1] (Oleyl, 10 μM, HeLa cells) is recorded as −9%; in experiment [1] (Palmitoleyl, 5 μM, HeLa cells), 20%; in experiment [1] (Palmitoleyl, 10 μM, HeLa cells) it was 13%; in experiment [1] (Petroselinyl, 5 μM, HeLa cells), 6%; in experiment [1] (setting [4]), 11%; in experiment [1] (setting [5]) it was 33%. In addition, the “percentage of gene editing, GFP fluorescence intensity decrease (% of reduction)” value in experiment [2] (Dodecanal, 5 μM) was 9%; in experiment [2] (Dodecanal, 10 μM), 14%; in experiment [2] (Oleyl, 5 μM), 22%; in experiment [2] (Oleyl, 10 μM) it was 35%; in experiment [2] (Oleyl, 15 μM), 42%; in experiment [2] (Palmitoleyl, 5 μM), 7%. Besides, the “percentage of gene editing, GFP fluorescence intensity decrease (% of reduction)” value in experiment [2] (Palmitoleyl, 10 μM) is listed as 9%; in experiment [2] (Palmitoleyl, 15 μM), 12%; in experiment [2] (Petroselinyl, 5 μM), 25%; in experiment [2] (Petroselinyl, 10 μM) it was 13%; in experiment [3] (Dodecanal, 15 μM), −11%; in experiment [3] (Myristoleyl, 15 μM), 4%. The “percentage of gene editing, GFP fluorescence intensity decrease (% of reduction)” value in experiment [3] (Oleyl, 5 μM) is reported as −7%; in experiment [3] (Oleyl, 10 μM), 4%; in experiment [3] (Palmitoleyl, 5 μM) it was −12%; in experiment [3] (Palmitoleyl, 10 μM) it was 17%; in experiment [3] (Palmitoleyl, 15 μM) it was 35%; in experiment [3] (Petroselinyl, 5 μM) it was 39%. In experiment [3] (Petroselinyl, 10 μM), the “percentage of gene editing, GFP fluorescence intensity decrease (% of reduction)” value worked out at 34%.
With “Ac-RK*LRRK*L-NH2 (Ac-RK(NHNH2)LRRK(NHNH2)L-NH2; not fully specified; printed as Ac-RK*LRRK*L-NH2; also: K*2,K*6: native or modified lysine (ε-amide to a linker)) [Peptide 7.2]”, the “percentage of gene editing, GFP fluorescence intensity decrease (% of reduction)” value in experiment [1] (Dodecanal, 5 μM, Hela cells) is 6%; in experiment [1] (Dodecanal, 10 μM, HeLa cells), −22%; in experiment [1] (Dodecanal, 15 μM, Hela cells), −26%; in experiment [1] (Myristoleyl, 5 μM, HeLa cells) it was −7%; in experiment [1] (Myristoleyl, 10 μM, HeLa cells), −18%; in experiment [1] (Myristoleyl, 15 μM, Hela cells), −6%. The “percentage of gene editing, GFP fluorescence intensity decrease (% of reduction)” value in experiment [2] (Dodecanal, 5 μM) is recorded as 0%; in experiment [2] (Dodecanal, 10 μM) it was 0%; in experiment [2] (Myristoleyl, 5 μM) it was 3%; in experiment [2] (Myristoleyl, 15 μM), −8%; in experiment [3] (Dodecanal, 15 μM) it was −18%.
For the substance “Ac-RK*LRRK*LRK*-NH2 (Ac-RK(NHNH2)LRRK(NHNH2)LRK(NHNH2)-NH2; not fully specified; printed as Ac-RK*LRRK*LRK*-NH2; also: K*2,K*6,K*9: native or modified lysine (ε-amide to a linker)) [Peptide 9.3]”, the “percentage of gene editing, GFP fluorescence intensity decrease (% of reduction)” value is listed as 25% in experiment [1] (Dodecanal, 5 μM, Hela cells); 61% in experiment [1] (Dodecanal, 10 μM, HeLa cells); 80% in experiment [1] (Dodecanal, 15 μM, Hela cells); 14% in experiment [1] (Myristoleyl, 5 μM, HeLa cells); 81% in experiment [1] (Myristoleyl, 15 μM, Hela cells); 11% in experiment [1] (Oleyl, 5 μM, HeLa cells). Besides, the “percentage of gene editing, GFP fluorescence intensity decrease (% of reduction)” value amounted to 26% in experiment [1] (Oleyl, 10 μM, HeLa cells); 44% in experiment [1] (Palmitoleyl, 10 μM, HeLa cells); 77% in experiment [1] (Palmitoleyl, 15 μM, Hela cells); 49% in experiment [1] (setting [4]); 77% in experiment [1] (setting [5]); 5% in experiment [2] (Dodecanal, 5 μM). Also, the “percentage of gene editing, GFP fluorescence intensity decrease (% of reduction)” value in experiment [2] (Dodecanal, 15 μM) is listed as −14%; in experiment [2] (Myristoleyl, 15 μM) it was −25%; in experiment [2] (Oleyl, 10 μM), 23%; in experiment [2] (Oleyl, 15 μM) it was 22%; in experiment [2] (Palmitoleyl, 5 μM) it was 3%; in experiment [2] (Palmitoleyl, 15 μM), 8%. Also, the “percentage of gene editing, GFP fluorescence intensity decrease (% of reduction)” value in experiment [2] (Petroselinyl, 15 μM) was −2%; in experiment [3] (Dodecanal, 5 μM), 7%; in experiment [3] (Dodecanal, 10 μM), 1%; in experiment [3] (Dodecanal, 15 μM), −8%; in experiment [3] (Myristoleyl, 15 μM), −11%; in experiment [3] (Oleyl, 5 μM), 24%. Besides, the “percentage of gene editing, GFP fluorescence intensity decrease (% of reduction)” value is 14% in experiment [3] (Oleyl, 10 μM); −21% in experiment [3] (Palmitoleyl, 5 μM); −38% in experiment [3] (Palmitoleyl, 15 μM); 4% in experiment [3] (Petroselinyl, 15 μM). In addition, the “% GFP silencing due to gene editing (Cas9-RNP)” value in experiment [1] (5 μM, Dod tail) is reported as 80%; in experiment [1] (5 μM, Pal tail) it was 77%.

The values are drawn from US20250304623A1, “PEPTIDES FOR INTRACELLULAR DELIVERY” (UNIVERSIDADE DE SANTIAGO DE COMPOSTELA, priority 2022, published 2025).
